The values that follow come from article PMC6553640 (Science signaling, 2018).

In this experiment the target is T1, TRIB1 (Homo sapiens, UniProt Q96RU8).
T1 sequence (Q96RU8 84-372): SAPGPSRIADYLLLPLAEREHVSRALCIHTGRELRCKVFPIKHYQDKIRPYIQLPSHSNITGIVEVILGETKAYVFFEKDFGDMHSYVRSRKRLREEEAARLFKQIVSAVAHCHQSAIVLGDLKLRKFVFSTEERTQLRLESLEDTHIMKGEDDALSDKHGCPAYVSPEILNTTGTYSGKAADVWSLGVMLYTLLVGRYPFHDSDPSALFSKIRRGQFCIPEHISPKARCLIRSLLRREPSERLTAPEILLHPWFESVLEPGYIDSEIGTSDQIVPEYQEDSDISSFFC
In words: DSF destabilization. Format: binding.

`COc1cccc(COc2cc(-n3cnc4ccccc43)sc2C(N)=O)c1` [GW804482X]: the DSF destabilization entry is “although like TRIB2, destabilization was evident in the presence of GW804482X (fig. S3C)”.
